Experimental data reported in PMC8165744, “Identification of an Alternative Glycyrrhizin Metabolite Causing Liquorice-Induced Pseudohyperaldosteronism and the Development of ELISA System to Detect the Predictive Biomarker” (Frontiers in Pharmacology, 2021).

Key:
[1] = elimination of GA metabolites in SD rats intravenously injected with GA; assay type: in vivo, Sprague-Dawley (SD) rats; details: female SD rats
Description: Briefly, after diluting serum and urine samples with water to obtain suitable concentrations, they were digested with subtilisin (0.91 U/ml), followed by the addition of astragaloside IV (used as an internal standard; Fujifilm Wako Pure Chemicals, Osaka, Japan), and deproteinized using 80% ethanol. […] The transitions (precursor to daughter) monitored and retention times were as follows: ESI(+), 743.4 to 567.5 m/z (35 and 25 V for cone voltage and collision energy, respectively) for compound 1 (8.1 min); ESI(–), 565.5 to 96.5 m/z (80 and 60 V) for 2 (9.6 min); ESI(–), 549.5 to 96.5 m/z (80 and 60 V) for 3 (15.4 min); ESI(+), 727.3 to 551.2 m/z (30 and 25 V) for 4 (11.3 min); ESI(+), 647.6 to 453.6 m/z (40 and 20 V) for 3MGA (15.0 min); ESI(+), 471.3 to 91.0 m/z (40 and 20 V) for GA (13.4 min); ESI(+), 823.5 to 453.6 m/z (30 and 20 V) for GL (18.4 min); and ESI(+), 785.4 to 143.0 m/z (30 and 20 V) for astragaloside IV (3.0 min). Linear regressions over the concentration range of 2 nM to 2 µM for each compound were examined using the peak-area ratio of the compounds to their internal standards and the least-squares method (r ^ 2 > 0.98). The detection limits for 1, GL, and GA were 6.4 nM, and those for 2, 3, and 4, and 3MGA were 3.2 nM.
FIGURE 6 Elimination of glycyrrhizin (GL) metabolites into bile in Sprague-Dawley (SD) rats. Female SD rats (10 week-old) were anesthetized using intraperitoneal injection of urethane (1 g/kg), and biliary tracts were cannulated. […] Concentrations of GA metabolites were measured using liquid chromatography-tandem mass spectrometry (LC-MS/MS) and accumulated elimination of GA-metabolites are means ± standard error (S.E: n = 3).

[2] = molecular target: T1, rat type-2 11β-hydroxysteroid dehydrogenase (11β-HSD2) (Rattus norvegicus, UniProt P50233); assay: in vitro 11β-HSD2 activity using rat kidney microsomes; assay type: biochemical; details: rat kidney microsome fraction, 37°C, 30 min
T1 construct: from tissue; host or cells: rat kidney microsome fraction
T1 sequence (P50233 1-400): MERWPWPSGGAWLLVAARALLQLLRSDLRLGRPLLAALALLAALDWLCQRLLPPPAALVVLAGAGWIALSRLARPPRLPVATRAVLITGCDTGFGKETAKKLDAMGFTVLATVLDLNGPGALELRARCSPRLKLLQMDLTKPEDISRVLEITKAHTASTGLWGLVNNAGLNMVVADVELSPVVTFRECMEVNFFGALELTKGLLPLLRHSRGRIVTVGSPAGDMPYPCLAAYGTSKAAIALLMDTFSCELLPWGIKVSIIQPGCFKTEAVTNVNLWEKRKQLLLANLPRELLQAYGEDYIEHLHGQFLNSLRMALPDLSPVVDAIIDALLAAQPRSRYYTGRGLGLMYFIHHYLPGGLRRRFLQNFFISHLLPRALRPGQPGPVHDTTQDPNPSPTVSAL
Procedure: Determination of in vitro 11β-HSD2 Activity Using Rat Kidney Microsomes
Then, the amount of [^3H] cortisol was measured. […] Kidneys were collected from normal Sprague-Dawley (SD) rats and slices were incubated with plasma samples of female EHBRs at 37°C or 4°C for 2 h, and then homogenized. […] HEK293 cells transfected with OAT1 or OAT3 were incubated with 1:2 diluted plasma samples of male EHBRs at 37°C for 15 min. Then, concentrations of 4 in cells were measured using LC-MS/MS.

CC1(C)[C@@H](OS(=O)(=O)O)CC[C@]2(C)[C@H]3C(=O)C=C4[C@@H]5C[C@@](C)(C(=O)O[C@@H]6O[C@H](C(=O)O)[C@@H](O)[C@H](O)[C@H]6O)CC[C@]5(C)CC[C@@]4(C)[C@]3(C)CC[C@@H]12 [Compound 4, 18β-glycyrrhetyl-3-O-sulfate-30-O-glucuronide]
accumulation in the bile ([1]; GA 0.2 mg/kg iv, bile collected for 4 h): the highest | accumulative elimination in faeces ([1]; GA iv, faeces collected 24 h after injection): below detectable levels | IC50 [2]: 380 nM
